Results taken from PubChem BioAssay AID2060498 (Molecular Pharmacology Branch, DTP, NCI, 2025).

Test system: 171881-019-R-J1-PDC tumor spheroids, viability
Experiment: Anticancer human tumor 171881-019-R-J1-PDC patient-derived invasive breast carcinoma cell line growth inhibition [GQUAD]
Settings: spheroids with HUVEC and MSC; for IC50: curve of first compound; for viability, T/C: stronger effect = lower value
Method in brief: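 Multi-cell-type spheroids of tumor cells with HUVEC and mesenchymal stem cells, treated with drug combinations. Concentrations descend in half-log steps from near clinical Cmax, or from 10 microM where Cmax is unknown; viability read-out.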

[1] = second compound 0.0316 µM, first compound 0.0316 µM
[2] = second compound 0.0316 µM, first compound 0.1 µM
[3] = second compound 0.0316 µM, first compound 0.316 µM
[4] = second compound 0.0316 µM, first compound 1 µM
[5] = second compound 0.0316 µM, first compound 3.16 µM
[6] = second compound 0.0316 µM, first compound 10 µM
[7] = second compound 0.1 µM, first compound 0.0316 µM
[8] = second compound 0.1 µM, first compound 0.1 µM
[9] = second compound 0.1 µM, first compound 0.316 µM
[10] = second compound 0.1 µM, first compound 1 µM
[11] = second compound 0.1 µM, first compound 3.16 µM
[12] = second compound 0.1 µM, first compound 10 µM
[13] = second compound 0.316 µM, first compound 0.0316 µM
[14] = second compound 0.316 µM, first compound 0.1 µM
[15] = second compound 0.316 µM, first compound 0.316 µM
[16] = second compound 0.316 µM, first compound 1 µM
[17] = second compound 0.316 µM, first compound 3.16 µM
[18] = second compound 0.316 µM, first compound 10 µM
[19] = second compound 1 µM, first compound 0.0316 µM
[20] = second compound 1 µM, first compound 0.1 µM
[21] = second compound 1 µM, first compound 0.316 µM
[22] = second compound 1 µM, first compound 1 µM
[23] = second compound 1 µM, first compound 3.16 µM
[24] = second compound 1 µM, first compound 10 µM
[25] = second compound 3.16 µM, first compound 0.0316 µM
[26] = second compound 3.16 µM, first compound 0.1 µM
[27] = second compound 3.16 µM, first compound 0.316 µM
[28] = second compound 3.16 µM, first compound 1 µM
[29] = second compound 3.16 µM, first compound 3.16 µM
[30] = second compound 3.16 µM, first compound 10 µM
[31] = second compound 10 µM, first compound 0.0316 µM
[32] = second compound 10 µM, first compound 0.1 µM
[33] = second compound 10 µM, first compound 0.316 µM
[34] = second compound 10 µM, first compound 1 µM
[35] = second compound 10 µM, first compound 3.16 µM
[36] = second compound 10 µM, first compound 10 µM
[37] = second compound 0.0316 µM, first compound 0.000999 µM
[38] = second compound 0.0316 µM, first compound 0.00316 µM
[39] = second compound 0.0316 µM, first compound 0.00999 µM
[40] = second compound 0.0316 µM, first compound 0.0999 µM
[41] = second compound 0.1 µM, first compound 0.000999 µM
[42] = second compound 0.1 µM, first compound 0.00316 µM
[43] = second compound 0.1 µM, first compound 0.00999 µM
[44] = second compound 0.1 µM, first compound 0.0999 µM
[45] = second compound 0.316 µM, first compound 0.000999 µM
[46] = second compound 0.316 µM, first compound 0.00316 µM
[47] = second compound 0.316 µM, first compound 0.00999 µM
[48] = second compound 0.316 µM, first compound 0.0999 µM
[49] = second compound 1 µM, first compound 0.000999 µM
[50] = second compound 1 µM, first compound 0.00316 µM
[51] = second compound 1 µM, first compound 0.00999 µM
[52] = second compound 1 µM, first compound 0.0999 µM
[53] = second compound 3.16 µM, first compound 0.000999 µM
[54] = second compound 3.16 µM, first compound 0.00316 µM
[55] = second compound 3.16 µM, first compound 0.00999 µM
[56] = second compound 3.16 µM, first compound 0.0999 µM
[57] = second compound 10 µM, first compound 0.000999 µM
[58] = second compound 10 µM, first compound 0.00316 µM
[59] = second compound 10 µM, first compound 0.00999 µM
[60] = second compound 10 µM, first compound 0.0999 µM
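Further: spheroids exposed to compounds for 7 days.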
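Wherever viability, T/C is given: 100% = DMSO vehicle control viability.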

C=CC(=O)N1CCN(c2nc(=O)n(-c3c(C)ccnc3C(C)C)c3nc(-c4c(O)cccc4F)c(F)cc23)C(C)C1 (stereo not given) + Cc1[nH]c2ccc(F)cc2c1-c1nc2c3cccnc3c3ncccc3c2[nH]1
IC50 (second compound 0.0316 µM): 9200 nM
IC50 (second compound 0.1 µM): 9550 nM
IC50 (second compound 0.316 µM): 8670 nM
IC50 (second compound 1 µM): 7980 nM
IC50 (second compound 3.16 µM): < 31.6 nM
IC50 (second compound 10 µM): < 31.6 nM
viability, T/C [1]: 92.1%
viability, T/C [2]: 91.5%
viability, T/C [3]: 84.8%
viability, T/C [4]: 109%
viability, T/C [5]: 90%
viability, T/C [6]: 46.5%
viability, T/C [7]: 83%
viability, T/C [8]: 92%
viability, T/C [9]: 101%
viability, T/C [10]: 112%
viability, T/C [11]: 87.9%
viability, T/C [12]: 48.4%
viability, T/C [13]: 100%
viability, T/C [14]: 94.2%
viability, T/C [15]: 91.4%
viability, T/C [16]: 104%
viability, T/C [17]: 92.8%
viability, T/C [18]: 43.7%
viability, T/C [19]: 84.9%
viability, T/C [20]: 80.1%
viability, T/C [21]: 76.2%
viability, T/C [22]: 79.5%
viability, T/C [23]: 85.4%
viability, T/C [24]: 42.4%
viability, T/C [25]: 21.9%
viability, T/C [26]: 16.6%
viability, T/C [27]: 26.8%
viability, T/C [28]: 21.9%
viability, T/C [29]: 24.5%
viability, T/C [30]: 16%
viability, T/C [31]: 38.5%
viability, T/C [32]: 41.4%
viability, T/C [33]: 41.6%
viability, T/C [34]: 47.6%
viability, T/C [35]: 44.9%
viability, T/C [36]: 34.1%

CC[C@@]1(O)C(=O)OCc2c1cc1n(c2=O)Cc2cc3c(CN(C)C)c(O)ccc3nc2-1 + Cc1[nH]c2ccc(F)cc2c1-c1nc2c3cccnc3c3ncccc3c2[nH]1
IC50 (second compound 0.0316 µM): 96.1 nM
IC50 (second compound 0.1 µM): 122 nM
IC50 (second compound 0.316 µM): 142 nM
IC50 (second compound 1 µM): 119 nM
IC50 (second compound 3.16 µM): < 0.999 nM
IC50 (second compound 10 µM): < 0.999 nM
viability, T/C [37]: 97%
viability, T/C [38]: 86.9%
viability, T/C [39]: 97.9%
viability, T/C [1]: 87.1%
viability, T/C [40]: 48.8%
viability, T/C [3]: 37.8%
viability, T/C [41]: 108%
viability, T/C [42]: 99.1%
viability, T/C [43]: 93.1%
viability, T/C [7]: 87.1%
viability, T/C [44]: 50.8%
viability, T/C [9]: 39.7%
viability, T/C [45]: 101%
viability, T/C [46]: 104%
viability, T/C [47]: 90.5%
viability, T/C [13]: 82.8%
viability, T/C [48]: 53.9%
viability, T/C [15]: 38.1%
viability, T/C [49]: 87.6%
viability, T/C [50]: 68%
viability, T/C [51]: 86%
viability, T/C [19]: 70.3%
viability, T/C [52]: 52.8%
viability, T/C [21]: 37.7%
viability, T/C [53]: 21.7%
viability, T/C [54]: 17.7%
viability, T/C [55]: 22.7%
viability, T/C [25]: 24.3%
viability, T/C [56]: 22.9%
viability, T/C [27]: 16.7%
viability, T/C [57]: 46.2%
viability, T/C [58]: 41.7%
viability, T/C [59]: 45.2%
viability, T/C [31]: 38.4%
viability, T/C [60]: 37.6%
viability, T/C [33]: 20.7%

Cc1cccc(N(C)C(=O)C2C(O)CCN2c2nc(C)cc(C(F)(F)F)c2C#N)c1 (stereo not given) + Cc1[nH]c2ccc(F)cc2c1-c1nc2c3cccnc3c3ncccc3c2[nH]1
IC50 (second compound 0.0316 µM): > 10000 nM
IC50 (second compound 0.1 µM): > 10000 nM
IC50 (second compound 0.316 µM): > 10000 nM
IC50 (second compound 1 µM): > 10000 nM
IC50 (second compound 3.16 µM): < 31.6 nM
IC50 (second compound 10 µM): 3920 nM
viability, T/C [1]: 113%
viability, T/C [2]: 94.4%
viability, T/C [3]: 95.6%
viability, T/C [4]: 95.9%
viability, T/C [5]: 100%
viability, T/C [6]: 69%
viability, T/C [7]: 105%
viability, T/C [8]: 106%
viability, T/C [9]: 93.7%
viability, T/C [10]: 90.3%
viability, T/C [11]: 81.9%
viability, T/C [12]: 77.8%
viability, T/C [13]: 97.4%
viability, T/C [14]: 95.3%
viability, T/C [15]: 91.9%
viability, T/C [16]: 91.4%
viability, T/C [17]: 102%
viability, T/C [18]: 80.7%
viability, T/C [19]: 91.7%
viability, T/C [20]: 77.7%
viability, T/C [21]: 91.8%
viability, T/C [22]: 74.6%
viability, T/C [23]: 90.5%
viability, T/C [24]: 79%
viability, T/C [25]: 23.7%
viability, T/C [26]: 18.9%
viability, T/C [27]: 30.2%
viability, T/C [28]: 25.2%
viability, T/C [29]: 20.3%
viability, T/C [30]: 22.3%
viability, T/C [31]: 47.4%
viability, T/C [32]: 59%
viability, T/C [33]: 48.1%
viability, T/C [34]: 60.5%
viability, T/C [35]: 48.8%
viability, T/C [36]: 44.3%

Cn1ncnc1[C@H]1c2n[nH]c(=O)c3cc(F)cc(c23)N[C@@H]1c1ccc(F)cc1 + Cc1[nH]c2ccc(F)cc2c1-c1nc2c3cccnc3c3ncccc3c2[nH]1
IC50 (second compound 0.0316 µM): > 316 nM
IC50 (second compound 0.1 µM): > 316 nM
IC50 (second compound 0.316 µM): > 316 nM
IC50 (second compound 1 µM): > 316 nM
IC50 (second compound 3.16 µM): < 0.999 nM
IC50 (second compound 10 µM): < 0.999 nM
viability, T/C [37]: 97.1%
viability, T/C [38]: 94.5%
viability, T/C [39]: 93.2%
viability, T/C [1]: 101%
viability, T/C [40]: 94.6%
viability, T/C [3]: 84.5%
viability, T/C [41]: 88.5%
viability, T/C [42]: 106%
viability, T/C [43]: 90%
viability, T/C [7]: 101%
viability, T/C [44]: 99.1%
viability, T/C [9]: 87.6%
viability, T/C [45]: 102%
viability, T/C [46]: 107%
viability, T/C [47]: 91.9%
viability, T/C [13]: 84.8%
viability, T/C [48]: 102%
viability, T/C [15]: 82.4%
viability, T/C [49]: 79%
viability, T/C [50]: 76.8%
viability, T/C [51]: 81%
viability, T/C [19]: 75%
viability, T/C [52]: 89.1%
viability, T/C [21]: 78.6%
viability, T/C [53]: 20.5%
viability, T/C [54]: 18.4%
viability, T/C [55]: 23.2%
viability, T/C [25]: 21.1%
viability, T/C [56]: 19.7%
viability, T/C [27]: 17.1%
viability, T/C [57]: 48.6%
viability, T/C [58]: 52.7%
viability, T/C [59]: 55.2%
viability, T/C [31]: 47.3%
viability, T/C [60]: 56.7%
viability, T/C [33]: 58.1%

O=C(c1cc(Cc2n[nH]c(=O)c3ccccc23)ccc1F)N1CCN(C(=O)C2CC2)CC1 + Cc1[nH]c2ccc(F)cc2c1-c1nc2c3cccnc3c3ncccc3c2[nH]1
IC50 (second compound 0.0316 µM): > 10000 nM
IC50 (second compound 0.1 µM): > 10000 nM
IC50 (second compound 0.316 µM): > 10000 nM
IC50 (second compound 1 µM): > 10000 nM
IC50 (second compound 3.16 µM): < 31.6 nM
IC50 (second compound 10 µM): > 10000 nM
viability, T/C [1]: 95.7%
viability, T/C [2]: 105%
viability, T/C [3]: 102%
viability, T/C [4]: 106%
viability, T/C [5]: 99.3%
viability, T/C [6]: 89.3%
viability, T/C [7]: 102%
viability, T/C [8]: 103%
viability, T/C [9]: 96.7%
viability, T/C [10]: 95.7%
viability, T/C [11]: 89.1%
viability, T/C [12]: 80.3%
viability, T/C [13]: 91.7%
viability, T/C [14]: 107%
viability, T/C [15]: 107%
viability, T/C [16]: 96.2%
viability, T/C [17]: 91.6%
viability, T/C [18]: 81.9%
viability, T/C [19]: 86.5%
viability, T/C [20]: 75.6%
viability, T/C [21]: 91.3%
viability, T/C [22]: 80.6%
viability, T/C [23]: 87.2%
viability, T/C [24]: 78.4%
viability, T/C [25]: 27.8%
viability, T/C [26]: 23.5%
viability, T/C [27]: 24.4%
viability, T/C [28]: 31.8%
viability, T/C [29]: 28.9%
viability, T/C [30]: 25.7%
viability, T/C [31]: 55.1%
viability, T/C [32]: 51.2%
viability, T/C [33]: 57.2%
viability, T/C [34]: 60.7%
viability, T/C [35]: 60.5%
viability, T/C [36]: 49.5%
